Test [1] deals with HCT-116 colon cancer cell lines. In words: Matrigel Invasion Assay on HCT-116 colon cancer cell line. In kind it is cell-based, human. Particulars: HCT-116, Matrigel, 24 hours treatment, vs DMSO. How it is done:
To evaluate the metastasis inhibitory efficacy of the compounds of the present invention on HCT-116 colon cancer cell lines, an Invasion Assay using Matrigel was performed to assess the cells' invasion ability.
First, Matrigel was thawed on ice in RPMI-1640 medium without FBS, then diluted with DMEM at a ratio of 1:20.
The diluted Matrigel mixture was applied to the upper chamber at 100 μl per well, and 750 μl of RPMI-1640 without FBS was added to the lower chamber.
The plates were then incubated at 37° C. for 1 hour to allow the Matrigel to solidify.
After coating, the Matrigel mixture in the upper chamber was removed using a pipette, and the chamber was washed with RPMI without FBS.
Human-derived colorectal cancer cell line HCT-116, obtained from the Korean Cell Bank, was cultured in RPMI-1640 medium containing 10% FBS.
Following stabilization, the cells were harvested using Trypsin-EDTA treatment, centrifuged at 1,200 rpm for 3 minutes, the supernatant was removed, and the cells were resuspended in the same medium, the medium in the lower chamber was replaced with 750 μl of RPMI-1640 supplemented with 10% FBS, and the cells were seeded into the upper chamber at a density of 5×10^4 cells/well.
The cells were cultured for 24 hours after attachment, and then the compounds according to the present invention (G078, G085, G086, G088, G089, PBK-2024-010, PBK-2025-010, PBK-2025-013, PBK-2025-016) and the control substance DMSO were diluted and added to the upper chamber after removing the medium.
Additionally, the medium in the lower chamber was replaced with fresh RPMI-1640 containing FBS, and the culture was continued.
After an additional 24 hours, the medium was removed, and 1 ml of methanol was added for 10 minutes to fix the cells.
Subsequently, 1 ml of Hematoxylin was added and reacted for 5 minutes, followed by 1 ml of Eosin, which was reacted for 30 seconds. The sample was then washed with distilled water (DW).
After staining was complete, any remaining cells in the upper chamber were removed. Finally, the infiltrated cells were observed under a microscope, photographed, and the degree of infiltration was analyzed.

In another test the test system is MRL/lpr mice. In words: Systemic lupus erythematosus animal model (MRL/lpr). Format: in vivo, MRL/MpJ-Faslpr/J mice. An excerpt: The MRL/MpJ-Faslpr/J (hereinafter referred to as “MRL/lpr”) used in this experiment is one of the representative animal models for systemic lupus erythematosus (SLE), known to produce various autoantibodies, including antinuclear antibodies, due to the lpr (lymphoproliferation) gene.
In this invention, the period up to 9 weeks of age was considered the pre-disease stage, and the period after 23 weeks of age was considered the post-disease stage, and efficacy verification experiments using this model were conducted.
Subsequently, female and male MRL/lpr mice were mated at a ratio of 2:1 in the same facility, and the female offspring were administered the compound GO15F of the present invention or vehicle at a dose of 30 mg/kg once daily via intraperitoneal injection or oral administration from the age of 10 weeks until 23 weeks of age.
Urine samples were collected once a week from each individual and used for analytical experiments.
At 23 weeks of age, necropsy was performed on each MRL/lpr mouse, and serum, kidneys, and spleens were isolated and used for analytical experiments. […]
The concentration of anti-nuclear antibodies (Anti-dsDNA Ab) was measured using the ‘Mouse Anti-dsDNA IgG ELISA Kit (Alpha Diagnostic International, Cat. #5120)’ on serum isolated at the time of necropsy in the lupus animal model.
Each mouse serum was diluted to a final concentration of 1/5000 with Working Sample Diluent (WSD) and Low NSB Sample Diluent (LNSD), followed by adding 100 μl of the diluted serum to wells coated with anti-dsDNA and incubating at room temperature for 60 minutes.
The serum separated at the time of necropsy of the lupus animal model was analyzed using the ‘IgG (Total) Mouse Uncoated ELISA Kit (Invitrogen, Cat. #88-50400)’ to measure the concentration of total IgG.
To investigate the effect of GO15F administration on changes in the ratio of immune cells in the spleen of a lupus animal model, the spleens of mice administered each compound were excised, cells were extracted, and the cells were suspended in MACS buffer (autoMACS Washing Solution, Miltenyi Biotec., Cat. #130-092-987).
For flow cytometry analysis, FACS tubes (5 mL round tubes, Falcon, Cat. #352052) were used. To prevent non-specific binding of antibodies, 1 μg/mL of anti-mouse CD16/CD32 (In VivoPlus anti-mouse CD16/CD32, BioXCell, Cat. #BP0307) for 30 minutes to prevent non-specific binding of the antibody, then centrifuge at 1,500 rpm for 5 minutes and resuspend in 100 μL of MACS buffer.
For B cells, each FACS tube was stained with 1 μg/mL of FITC-conjugated anti-B220 antibody (eBioscience™, Cat. #11-0452-81) at 4° C. for 30 minutes, then washed with 2 mL of MACS buffer.
For T cells, each FACS tube was stained with 1 μg/mL PerCP-Cy5.5-conjugated anti-CD3 (Biolegend, Cat. #100218) at 4° C. for 30 minutes.
For macrophages, each FACS tube was stained with 1 μg/mL of PE-conjugated anti-CD11b antibody (Biolegend, Cat. #101207) and PerCP-Cy5.5-conjugated anti-F4/80 (Biolegend, Cat. #123128) and incubated at 4° C. for 30 minutes. The tubes were then washed with 2 mL of MACS buffer. […]
The synthesized cDNA from each mouse was quantified to a concentration of 50 ng using a micro-quantitative spectrophotometer, and qPCR was performed for the cytokines ‘IL-2, IL-6, IL-10, IL-17, TNF-α, IFN-γ’ using a SYBR green probe (CFX96, BIO-RAD).
To investigate the effects of drug administration on renal tissue in MRL/lpr mice, the tissue was fixed in 10% neutral buffered formalin at room temperature, followed by stepwise ethanol penetration for dehydration. The tissue was then embedded in xylene and paraffin.
The blocked tissues were sectioned into 4 μm thick slices using a microtome, followed by deparaffinization, hydration, and staining.
Hematoxylin & Eosin staining, PAS staining, and Masson trichrome staining were performed for pathological evaluation of the tissues. […]

The mark [2] stands for this setting: serum at necropsy, ELISA, vs control group.

Take “12-[4-(2,2-dimethylmorpholin-4-yl)]dodecyl-N-(6-aminopurine-2-yl) carboxamide [Compound 11]”: the “number of infiltrated cells (invasion)” value in test [1] was “reduction in the number of infiltrated cells”.

Regarding `Nc1ncccc1C(=O)NCCCCCCCCCCCCF` [Compound 57, 2-Amino-N-(12-fluoro-dodecyl)-nicotinamide], in the test on MRL/lpr mice (30 mg/kg once daily, vs control group), the “protein concentration in urine” value is recorded as “significantly lower”. Moreover, in the test on MRL/lpr mice (H&E, PAS, Masson trichrome), the “renal pathological tissue staining (glomeruli)” value is “glomerular capillary loops were well maintained”. In addition, the “immune cells in the spleen (B cells, T cells, macrophages)” value with MRL/lpr mice (flow cytometry (B220, CD3, CD11b/F4/80)) was “reduced the increased B cells, T cells, and macrophages”. Besides, in the test with MRL/lpr mice (immunofluorescence staining, vs control group), the “IgG deposition in kidney tissue” value was “significantly lower”. Besides, in the test with MRL/lpr mice (setting [2]), the “concentration of anti-dsDNA IgG in the blood” value was “significantly lower” and the “total IgG concentration in the blood” value is recorded as “significantly lower”.

These data come from US20260183302A1, “PDK1 REGULATORY COMPOUND AND COMPOSITION CONTAINING THE SAME” (PROVIBIO CO., LTD., priority 2024, published 2026).
